Measured values from BindingDB's records for patent US20260014125 (Haihe Biopharma, 2026).

molecular target: S-adenosylmethionine synthase isoform type-2 (Homo sapiens, UniProt P31153); test: Enzymatic Activity of MAT2A
Method: 1. 1×Assaybuffer (buffer composition: Tris, KCl, MgCl2, BSA, Brij35, and EDTA; the solvent was ultrapure water) was prepared. MAT2A his-tag enzyme solution (containing 1.3 μL of MAT2A enzyme and 998.7 μL of 1×Assaybuffer per 1000 μL) and substrate mixed solution (containing 5 μL of ATP, 1.3 μL of L-methionine, and 993.7 μL of 1×Assaybuffer per 1000 μL) were prepared using 1×AssayBuffer.2. Preparation of compound concentration gradient: The test compound was tested with a starting concentration of 10 μM, and 10 […] concentrations were set according to a 3-fold dilution. Specifically, firstly, the compound was diluted into 10 different concentrations of series solutions in a 384 well plate (with final detection concentrations of 10, 3.33, 1.11, 0.37, 0.123, 0.041, 0.0137, 0.0046, 0.0015, and 0.0005 μM), and then 250 nL of the above series solutions was transferred to the 384 well reaction plate using an ultrasonic pipetting system Echo550 for later use. 250 nL of 100% DMSO was added into a negative control well and a positive control well, respectively. Double well test.3. 15 μL of MAT2A his-tag enzyme solution was added into both the compound well and the positive control well; and 15 μL of 1×Assaybuffer was added into the negative control well.4. The 384 well plate reaction plate was centrifuged at 1000 rpm for 60 seconds, shaken, mixed well, and incubated for 15 minutes. 10 μL of substrate mixed solution was added into each experimental well of the 384 well reaction plate to initiate the reaction.5. The 384 well reaction plate was centrifuged at 1000 rpm for 60 seconds, shaken, mixed well, and incubated for 150 minutes.6. 50 μL of enzyme reaction termination solution Biomol was added into all experimental wells of the 384 well reaction plate to terminate the reaction, centrifuged at 1000 rpm for 60 seconds, and incubated for 15 minutes. OD620 was Data analysis: the inhibition rate (%) of the compound was calculated and fitted to obtain the IC50 of the tested compound.

S-adenosylmethionine synthase isoform type-2, sequence (P31153 whole entry, canonical isoform): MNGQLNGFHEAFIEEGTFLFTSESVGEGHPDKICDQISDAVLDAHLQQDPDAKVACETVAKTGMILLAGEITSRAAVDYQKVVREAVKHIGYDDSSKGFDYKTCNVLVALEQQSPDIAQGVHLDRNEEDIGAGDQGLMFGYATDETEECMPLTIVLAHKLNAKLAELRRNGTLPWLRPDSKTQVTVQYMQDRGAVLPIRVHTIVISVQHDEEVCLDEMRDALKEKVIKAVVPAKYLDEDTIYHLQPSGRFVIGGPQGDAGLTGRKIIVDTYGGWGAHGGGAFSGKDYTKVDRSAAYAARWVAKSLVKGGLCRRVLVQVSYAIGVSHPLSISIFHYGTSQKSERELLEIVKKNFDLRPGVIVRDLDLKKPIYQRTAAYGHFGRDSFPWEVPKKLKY

Q: How did the IC50 turn out when `CCOc1c(-c2ccc(OC(F)F)cc2)c(=O)n(-c2ccn3nccc3c2)c2[nH]ncc12` [US20260014125, Compound 23] was run?
A: 9.8 nM

Q: How did the IC50 turn out when `CCOc1c(-c2ccc(OC(F)F)cc2)c(=O)n(-c2ccc3nn(CCOC)cc3c2)c2[nH]ncc12` [US20260014125, Compound 21] was run?
A: 8.3 nM

Q: Which IC50 does the source give for `CCOc1c(-c2ccc(OC(F)F)cc2)c(=O)n(-c2ccc3nccn3c2)c2[nH]ncc12` [US20260014125, Compound 24] here?
A: 15.9 nM

Q: Which IC50 does the source give for `CCOc1c(-c2ccc(OC(F)F)cc2)c(=O)n(-c2ccc3ncnn3c2)c2[nH]ncc12` [US20260014125, Compound 25] here?
A: 14 nM
